Experimental data as given in patent US20150183737A1, “COMPOSITIONS AND METHODS FOR SUBSTRATE-SELECTIVE INHIBITION OF ENDOCANNABINOID OXYGENATION” (Vanderbilt University, priority 2012, published 2015).

Tests used:
[1] = molecular target: COX-2 in dorsal root ganglion cells (DRGs) (Mus musculus, UniProt Q05769)
Description: Treatment with inflammatory stimuli was performed as described herein below.
DRGs were harvested from E14 mouse embryos and plated onto collagen-coated dishes. After being cultured for 3-5 days, they were treated overnight with granulocyte-macrophage colony-stimulating factor followed by lipopolysaccharide, interferon γ, and 10 μM 15(S)-hydroxy-5,8,11,13-eicosatetraenoic acid for 6 hours.
DRGs, activated as above for 3 hours were treated with ionomycin for an additional 3 hours to stimulate substrate release.
The amounts of prostaglandin, PG-G, and PG-EA were quantified using stable-isotope dilution methods with labeled internal standards.

purified murine COX-2 = molecular target: T1, purified murine COX-2 (Mus musculus, UniProt Q05769); details: chiral profens; at 10 μM inhibitor; data taken from reference 10; cited from earlier work
T1 sequence (Q05769 18-604): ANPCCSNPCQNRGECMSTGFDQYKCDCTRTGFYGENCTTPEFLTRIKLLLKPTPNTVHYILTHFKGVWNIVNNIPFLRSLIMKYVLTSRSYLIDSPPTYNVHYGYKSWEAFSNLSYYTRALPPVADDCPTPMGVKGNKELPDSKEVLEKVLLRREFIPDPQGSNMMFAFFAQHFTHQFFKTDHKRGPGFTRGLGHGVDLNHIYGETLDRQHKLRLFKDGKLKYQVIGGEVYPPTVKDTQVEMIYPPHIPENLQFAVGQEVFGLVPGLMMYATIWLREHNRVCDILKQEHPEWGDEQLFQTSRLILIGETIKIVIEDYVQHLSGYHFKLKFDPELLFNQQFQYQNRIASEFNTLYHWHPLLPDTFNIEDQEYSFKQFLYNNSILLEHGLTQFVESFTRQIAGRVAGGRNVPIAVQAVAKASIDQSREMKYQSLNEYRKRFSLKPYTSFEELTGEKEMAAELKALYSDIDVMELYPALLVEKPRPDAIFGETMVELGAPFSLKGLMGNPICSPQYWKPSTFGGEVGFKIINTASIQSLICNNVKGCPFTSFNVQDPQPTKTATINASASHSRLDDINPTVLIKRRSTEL

COc1ccc2cc([C@@H](C)C(=O)O)ccc2c1 [Compound 7b, (R)-naproxen]
Synthesis of prostaglandins in DRGs ([1]; at concentrations that inhibited PG-G and PG-EA synthesis): did not inhibit | Amounts of AEA and 2-AG in cell extracts ([1]; stimulated DRGs): increased | % Inhibition AA (purified murine COX-2): 0%
